Laboratory results: ChEMBL document CHEMBL4342452, “Water-Soluble Glutamic Acid Derivatives Produced in Culture by Penicillium solitum IS1-A from King George Island, Maritime Antarctica” (J Nat Prod, 2020)
Activity calls are given as the source filed them. No cut-off for these calls is given here.

Key:
Klebsiella pneumoniae = assay: Antibacterial activity against Klebsiella pneumoniae ATCC 700603 incubated for 18 hrs by microdilution method; type: functional, organism-based
MCF-10A = assay: Cytotoxicity against human MCF10A cells after 24 hrs by tetrazolium dye based assay; type: cell-based
Enterococcus faecalis = assay: Antibacterial activity against Enterococcus faecalis ATCC 29212 incubated for 18 hrs by microdilution method; type: functional, organism-based
Pseudomonas aeruginosa = assay: Antibacterial activity against Pseudomonas aeruginosa ATCC 27853 incubated for 18 hrs by microdilution method; type: functional, organism-based
Homo sapiens = species on record: Homo sapiens; assay: Cytotoxicity against human ACP01 cells after 24 hrs by tetrazolium dye based assay; type: functional, cell-based
Staphylococcus aureus = assay: Antibacterial activity against Staphylococcus aureus ATCC 29213 incubated for 18 hrs by microdilution method; type: functional, organism-based
MCF7 = assay: Cytotoxicity against human MCF7 cells after 24 hrs by tetrazolium dye based assay; type: functional, cell-based
HeLa = assay: Cytotoxicity against human HeLa cells after 24 hrs by tetrazolium dye based assay; type: functional, cell-based
A549 = assay: Cytotoxicity against human A549 cells after 24 hrs by tetrazolium dye based assay; type: functional, cell-based

Structure (SMILES)	Activity (Klebsiella pneumoniae)	Activity (MCF-10A)	Activity (Enterococcus faecalis)	Activity (Pseudomonas aeruginosa)	Activity (Homo sapiens)	Activity (Staphylococcus aureus)	Activity (MCF7)	Activity (HeLa)	Activity (A549)
C=CC(C)(C)[C@@]1(CCNC(=O)CC[C@H](N)C(=O)O)C(=O)Nc2ccccc21	inactive	Non-Toxic	inactive	inactive	inactive	inactive	inactive	inactive	inactive
C=CC(C)(C)c1[nH]c2ccccc2c1CCNC(=O)CC[C@H](N)C(=O)O	inactive	Non-Toxic	inactive	inactive	inactive	inactive	inactive	inactive	inactive
C=CC(C)(C)[C@H]1Nc2ccccc2C(=O)[C@@H]1CNC(=O)CC[C@H](N)C(=O)O	inactive	Non-Toxic	inactive	inactive	inactive	inactive	inactive	inactive	inactive
C=CC(C)(C)c1[nH]c2ccccc2c1CCNC(=O)CC[C@H](O)C(=O)O	inactive	Non-Toxic	inactive	inactive	inactive	inactive	inactive	inactive	inactive
C=CC(C)(C)C(=O)Nc1ccccc1C(=O)CCNC(=O)CC[C@H](N)C(=O)O	inactive	Non-Toxic	inactive	inactive	inactive	inactive	inactive	inactive	inactive
C=CC(C)(C)c1[nH]c2ccccc2c(=O)c1CNC(=O)CC[C@H](N)C(=O)O	inactive	Non-Toxic	inactive	inactive	inactive	inactive	inactive	inactive	inactive
